Data as given in US20080275105A1, “Selective Muscle Relaxant and Pharmaceutical Compositions” (UNIVERSIDADE FEDERAL DO RIO DE JANEIROUFRJ, priority 2004, published 2008).
Where “and” joins values, the source holds several entries; their conditions need not be identical. Equal entries are not always repeated. Entries after “also recorded” stand apart in the source; their conditions may differ.

What was measured:
[1] = test system: left ventricle bundles of a rat heart; assay: Isometric tension in ventricular bundles; assay type: cell-based; settings: for muscular response in ventricular bundles: concentration not given, alterations not greater than 10%
Experimental: (§1) Once the experiments have been carried out, the findings were subject to statistical analyses being expressed in average ±SEM as a percentage of the control value, and graphs were drawn up using the Sigma Plot 5.0 program to represent the data obtained. For the statistical analysis of the effects on the different muscle tissues, the difference was assessed among the concentrations of the same derivative, using the “t” Student test. In order to ascertain the difference among the derivatives, the one-way ANOVA test was used. The differences were considered as significant for p<0.05. The Cl50 was expressed as an average ±SEM of the values obtained for each experiment through non-linear regression based on the y=yo+ae^−bx equation.
(§2) After anesthesia with ethyl ether, male Wistar rats weighing between 240-280 grams were sacrificed through cervical dislocation. The heart was removed rapidly and the papillary muscle and the ventricular bundles were dissected in Tyrode's solution, whose composition is given in Table 2 below, at room temperature. The muscles were placed in vertical chambers with a capacity of 10 mL and fixed at their extremities: the lower portion to a hook located in the stimulation electrode fixation rod and the upper portion connected to a power transducer (Grass FT03) for recording the muscle twitches.
(§3) The muscles were stimulated electrically with supra-maximum voltage (50-60 V) through a stimulator (Grass S88) at a frequency of 1.0 Hz. The signals captured by the transducer were amplified (Cyberamp 380, Axon Instruments) and the isometric tension was digitized (Digidata 1322A, Axon Instruments) and stored on a computer. The screening and analysis of the experiment was handled through the Axoscope 8.0 program (Axon Instruments) (Sudo & cols., 2001). The chamber solution was bubbled continuously with a carbogenic mixture (95% O2/5% CO2) and kept at a temperature of 37° C.
(§4) After the stabilization of the muscle twitches (approximately 30 min) the records were carried out in the absence (control) and presence of rising concentrations (10 to 100 μM) of the different L294 analogs, diluted in DMSO. The records were carried out in pairs (two papillary and two ventricle) thus allowing the control experiments to be carried out in one of the pairs, meaning with rising quantities of DMSO equivalent to those used to dilute the substances. The reversibility of the effect of the substances was investigated at the end of each experiment, noting the recovery of the muscle twitches after bathing the preparation with Tyrode's solution.

[2] = test system: rat aorta rings with the vascular endothelium preserved; assay: Phenylephrine-induced contracture in aorta rings with preserved endothelium; assay type: cell-based; settings: phenylephrine 10 μM; for IC50: Rattus norvegicus, with endothelium, six experiments, read-out: CI50 (μM) Average ± SEM
Experimental: as §1
(§5) Male Wistar rats weighing between 240-280 grams were sacrificed through dislocation of the cervical column under anesthesia using ethyl ether. The aorta artery was removed and transferred to a Petri dish containing modified Tyrode's solution whose composition is described in Table 3 below, where the vessel was cleaned and the connective tissue was removed. According to the scheduled Experiment Protocol, the vascular endothelium was removed mechanically with the assistance of a polyethylene rod. The artery was divided into rings with a width of 2-3 mm. Two hooks were placed in the wall of the vessel in order to record the tension generated by the muscle in a transversal direction. To do so, one of the hooks was tied to a fixed point in the chamber and the other to a power transducer (FT 03) for recording the isometric tension. The tension generated by the muscle was transformed into a digitized electric signal (Digidata 1322A) and stored in a computer for subsequent analysis using the Axoscope 8.0 program (Axon Instruments, Inc). The chamber was filled with Krebs solution, oxygenated and kept at a temperature of 37° C.
(§6) After stabilizing the preparation, approximately 120 minutes, the Experiment Protocol began. Initially, in order to identify the presence or absence of the vascular endothelium, the preparation was exposed to phenylephrine (10 μM) and when the contracture in response to this substance was stabilized, acetylcholine (10 μM) was added to the nutrient solution. Relaxation of over 80% in response to the acetylcholine indicated the full integrity of the endothelium and relaxation of less than 10% indicated the absence of endothelium. The tissues in which the relaxation intensity fell between >10% and <80% were discarded. In order to investigate the vasodilator effect of the different L294 analogs, they were added to the experiment chambers in rising concentration after the contracture stabilization of the vessel induced by phenylephrine. The tension registered after treatment with each of the L294 analog concentrations was normalized as a function of the amplitude of the contracture triggered by phenylephrine. For the purpose of comparing the potency of some of the L294 analogs, the Cl50 was determined for each experiment using the y=yo+ae^−bx equation and their mean was used for the statistical analysis.

[3] = test system: rat aorta rings with preserved endothelium; assay: KCl-induced contracture in aorta rings with preserved endothelium; assay type: cell-based; settings: KCl 40 mM
Experimental: as §1, §5, §6
The effects of the L294 analogs were investigated in rat aorta rings with preserved endothelium whose contracture was induced by increasing the extra-cellular concentration of KCl to 40 mM. Of the seven L294 analogs, this test was carried out only with the L785, L786, L789 and L790, in this group of experiments.

soleus (SOL) muscle = assay: Electrically induced twitch amplitude in slow-fiber skeletal muscle (SOL); assay type: cell-based, mice; settings: for SOL twitch amplitude 30 min-Washing (% of the control): 30 min after washing
Experimental: (§7) Male mice weighing 22-28 g were sacrificed through cervical dislocation and the extensor digitorium longus (EDL) and soleus (SOL) muscles were dissected in a Ringer-Krebs solution, whose composition is given in Table 9, at room temperature. The muscles were placed in vertical chambers with a capacity of 10 ml, and were fixed by their ends to the stimulation electrode fixation rod and a power transducer (Grass FT03) for registering muscle twitches. The chamber solution was bubbled continuously with a carbogenic mixture (95% O2/5% CO2) and kept at a temperature of 37° C. The muscles were stimulated electrically through a stimulator (Grass S88) at a frequency of 0.2 Hz, at 37° C. After the stabilization of the muscle twitches (±30 minutes) a control record was taken in the absence of the drug, and subsequently rising concentrations (from 10 μM to 200 μM) of the L294 derivatives were added every ten minutes, diluted in DMSO. […] The signals recorded by the transducer were amplified (Cyberamp) and the isometric tension was digitized (Digidata 1322A) and stored on a computer. The screening and analysis of the experiment was handled through the use of the Axoscope 8.0 program. (Zapata-Sudo, 2003).
(§8) A measurement of the electrically-induced twitch amplitude was selected to assist the effects of the L294 analogs on the skeletal muscle inotropism. One muscle consisting of fast fibers (extensor digitorium longus-EDL) and the other of slow fibers (soleus-SOL) taken from mice were selected for this purpose. Differences in the timing of the twitches between the fast and slow muscles are shown at the faster recording speed. […] Washing the preparation with Krebs solution caused a partial reversion of the effects induced by the L786.

rat papillary muscle = assay: Isometric tension (electrically stimulated twitches) in papillary muscle; assay type: cell-based; settings: for maximum alterations to the papillary muscle twitches: 10 to 100 μM, not significant; for amplitude of the papillary muscle twitches: 100 μM, 1 Hz stimulation
Experimental: as §1, §2, §3, §4

[4] = test system: aorta rings with no preserved endothelium; assay: Phenylephrine-induced contracture in aorta rings without endothelium; assay type: cell-based, rat; settings: phenylephrine 10 μM; for vasodilatory / relaxing effect on phenylephrine contracture, without endothelium: result in words; for IC50: Rattus norvegicus, without endothelium, six experiments, read-out: CI50 (MM) Average ± SEM
Experimental: as §1, §5, §6
The importance of the presence of vascular endothelium in the vasodilatory action of the L294 analogs was assessed in experiments in which these cells were removed mechanically. […] When the findings of the experiments without the endothelium were analyzed as a whole, the absence of the L790 effect was confirmed. […] The maximum relaxation caused by the L787 and L789 analogs was less than 50% of the control, and the other analogs caused relaxation in the following decreasing order of efficacy: L785>L788>L786. Once again, attention is drawn to the marked efficiency of the L785 and L788 analogs.

[5] = test system: rat aorta rings with no endothelium; assay: KCl-induced contracture in aorta rings without endothelium; assay type: cell-based; settings: Rattus norvegicus; KCl 40 mM; without endothelium; six experiments; read-out: CI50 (μM) Average ± SEM
Experimental: as §1, §5
as §6, with “[…] […]” for “In order to investigate the vasodilator effect of the different L294 analogs, they were added to the experiment chambers in rising concentration after the contracture stabilization of the vessel induced by phenylephrine. The tension registered after treatment with each of the L294 analog concentrations was normalized as a function of the amplitude of the contracture triggered by phenylephrine.”

[6] = test system: extensor digitorium longus (EDL) muscle; assay: Electrically induced twitch amplitude in fast-fiber skeletal muscle (EDL); assay type: cell-based, mice; settings: for EDL twitch amplitude 30 min-Washing (% of the control): 30 min after washing
Experimental: as §7, §8

[7] = test system: corpus cavernosa of a male guinea pig; assay: Phenylephrine-induced contracture in corpus cavernosa; assay type: cell-based; settings: 200 μM; phenylephrine 30 μM
Experimental: It is noted that L788 concentration-dependent inhibition occurred for the contractile response of the corpus cavernosa.
This same Protocol Experiment was repeated for the other derivatives being tested and for the solvent separately (FIG. 11). It was noted that only L788 caused significant reaction, where the amplitude of the contracture at a concentration of 200 μM was 46.5±8.8% of the control. […] The effect of the solvent (DMSO) was tested at volumes corresponding to those used for the derivatives, and was unable to cause any significant alterations to the contractility of this tissue.

| Structure (SMILES) | muscular response in ventricular bundles [1] | IC50 [2] | maximum inhibition levels of phenylephrine contracture, with endothelium [2] | amplitude of the KCl contracture, with endothelium ([3]; 200 μM stated for L790) | CI50 (μM) Average ± SEM ([3]; with endothelium, six experiments) | inhibition of the KCl contracture, with endothelium ([3]; up to 100 μM, result in words) | SOL twitch amplitude 200 μM (% of the control) (soleus (SOL) muscle) | SOL twitch amplitude 30 min-Washing (% of the control) (soleus (SOL) muscle) | maximum alterations to the papillary muscle twitches (rat papillary muscle) | vasodilatory / relaxing effect on phenylephrine contracture, without endothelium [4] | IC50 [5] | EDL twitch amplitude 200 μM (% of the control) [6] | EDL twitch amplitude 30 min-Washing (% of the control) [6] | muscle twitches / contractility in ventricular bundles ([1]; 100 μM) | amplitude of the phenylephrine contracture in rings with whole endothelium ([2]; maximum effect) | amplitude of the papillary muscle twitches (rat papillary muscle) | amplitude of the phenylephrine-induced contracture of the corpus cavernosa [7] | IC50 [4] |
| --- | --- | --- | --- | --- | --- | --- | --- | --- | --- | --- | --- | --- | --- | --- | --- | --- | --- | --- |
| O=C(N/N=C/c1ccc([N+](=O)[O-])s1)c1ccc2c(c1)OCO2 [L790, 1,3-Benzodioxol-5-carboxylic acid, [1-(5-nitro-thiophene-2-yl)-meth-(E)-ylidene]-hydrazide] | 92.3±1.6 % of the control | 216 ± 39.3 µM | 47.0±5.9% | 74.9±8.8 % of the control | cannot be determined | insignificant | 71.3±5.2 % of the control | 70.8 ± 7.7 % of the control | 87.8±5.6 % of the control | absence of the relaxing effect; also recorded: lacked vasodilatory action; also recorded: did not cause a significant relaxing effect | 123 ± 17.3 µM | 52.2±3.4 % of the control and 52.2 ± 3.8 % of the control | 49.2 ± 5.1 % of the control | – | – | – | – | – |
| C=CCN(/N=C/c1cccs1)C(=O)c1ccc2c(c1)OCO2 [L788, 1,3-Benzodioxol-5-carboxylic acid, N′-[1-thiophene-2-yl-meth-(E)-ylidene]-N-allyl-hydrazide] | – | 67.9 ± 6.5 µM | – | – | – | – | 45.1±5.1 % of the control | 37.8 ± 4.7 % of the control | – | – | – | 47.6±5.4 % of the control | 26.8 ± 2.3 % of the control | 74.9±5.1 % of the control | 10.4±3.2 % of the control | 81.2±2.6 % of the control | 46.5±8.8 % of the control | 65.7 ± 8 µM |
| Cc1ccc(/C=N/NC(=O)c2ccc3c(c2)OCO3)s1 [L787, 1,3-Benzodioxol-5-carboxylic acid, [1-(5-methyl-thiophene-2-yl)-meth-(E)-ylidene]-hydrazide] | 105±6.9 % of the control | 293 ± 76 µM | 37.1±7.0% | – | – | – | 47.6±4.2 % of the control | – | 115.0±5.0 % of the control | – | – | 37.8±3.5 % of the control | 38.6 ± 2.5 % of the control | – | – | – | – | 273 ± 22 µM |
| O=C(NNCc1cccs1)c1ccc2c(c1)OCO2 [L791, 1,3-Benzodioxol-5-carboxylic acid, N′-thiophene-2-ylmethyl-hydrazide] | 89.4±4.5 % of the control | 173 ± 26.7 µM | 59.2±7.8% | – | – | – | 69.3±4.8 % of the control | 74.4 ± 13.8 % of the control | 92.4±2.5 % of the control | did not result in any vasodilatory activity; also recorded: lacked vasodilatory action | – | 45.8±6.9 % of the control and 45.9 ± 6.9 % of the control | – | – | – | did not significantly alter the contractile response | – | – |
